Entries after “also recorded” stand apart in the source; their conditions may differ.
Tests used:
[1] = in vivo; cited from earlier work
[2] = tested on: carrageenan-induced behavioral hyperalgesia in rats; experiment: Hot plate method for measuring inflammatory nociception in freely moving rats; assay type: in vivo, rat; details: RGC 400 mg/kg oral (p<0.01) or indomethacin 2 mg/kg (p<0.05-0.01)
Protocol: The study assessed the efficacy of the RGC by two methods: • 1. Paw volume measurements • 2. Inflammatory nociception in freely moving rats • Red Grape Cells (RGC) prepared according to example 1. • RGC was administered orally at dose of 400 mg/kg body weight as a suspension in sterile drinking water, 2 h before carrageenan injection. The dose level was 40 mg/ml. Each rat was dosed with 1 ml of suspension per 100 g body weight. • RGC Composition: […] Rats were divided into three groups of eight rats in each group. The rats in all groups were injected with 1% Carrageenan ([…]) or sterile saline (0.9% NaCl) into the sub plantar tissue of left hind paw of each rat. The Following Tests were Performed: The hot plate method was used to determine inflammatory nociception in freely moving rates. After inducing edema and treatment with vehicle, indomethacin or RGC preparation, the rats were placed on a hot plate maintained at a temperature of 55±0.5° C. The latency to flick or lick the hind paw or jump from the hot plate in comparison to its baseline was considered as the reaction time. […]

[3] = tested on: carrageenan-induced hind paw inflammation in rats; experiment: Carrageenan-induced paw oedema rat model, paw volume measurements; assay type: in vivo; details: RGC 400 mg/kg oral or indomethacin 2 mg/kg 2 h before carrageenan, two-way ANOVA, Bonferroni, p<0.001
Text: The aim of the present study was to evaluate in vivo anti-inflammatory activity of RGC (Red Grape Cells) made according to the large scale process of the invention in an acute inflammation model in rats so as to verify the efficiency of the cells produced according to the invention. One of the experimental models most widely used to study acute inflammation in rodents is that based on the intraplantar administration of carrageenan. The study assessed the efficacy of the RGC by two methods: • 1. Paw volume measurements • 2. Inflammatory nociception in freely moving rats • Red Grape Cells (RGC) prepared according to example 1. • RGC was administered orally at dose of 400 mg/kg body weight as a suspension in sterile drinking water, 2 h before carrageenan injection. The dose level was 40 mg/ml. Each rat was dosed with 1 ml of suspension per 100 g body weight. • RGC Composition: […] Rats were divided into three groups of eight rats in each group. The rats in all groups were injected with 1% Carrageenan ([…]) or sterile saline (0.9% NaCl) into the sub plantar tissue of left hind paw of each rat. The Following Tests were Performed: • paw volumes were measured hourly just before carrageenan injection at time point 0 and 1, 2, 4 hours after injection using caliper. • The paw dimensions were measured in two axes and paw volume was calculated. […]

[4] = Solubility assay of RES sources in water vs 80% methanol; assay type: physicochemical
Protocol: RGC, synthetic resveratrol (S-RES; Sigma-Aldrich) and resveratrol extract from the plant Polygonum Capsidatum (plant-RES) were dissolved in 80% methanol to achieve 100% dissolution. Then, all RES sources were dissolved in water at pH 2 and pH 7 and the percentage of dissolution in water was compared to the dissolution in methanol. The RES in all samples was monitored at 306 nm, based on its characteristic absorption profile, and its concentration was determined by a calibration curve of resveratrol analytical standard.

Molecule: Oc1ccc(/C=C/c2cc(O)cc(O)c2)cc1
- shape of concentration time curve [1]: distinct single concentration peak

Molecule: COc1ccc2c(c1)c(CC(=O)O)c(C)n2C(=O)c1ccc(Cl)cc1 [indomethacin]
- Hot plate latency delta, baseline-actual time, comparison to vehicle control (1M) ([2]; FIG. 3): significant decrease in the latency delta of response to the thermal stimulus, 2 and 4 hours after carrageenan injection; also recorded: statistically significant difference at 2 and 4 h
- Hot plate latency, % from baseline, comparison to control group (1M) ([2]; hot plate 55°C, FIG. 2): statistically significant difference at 2 and 4 h
- paw edema (volume %), comparison to control group (1M) [3]: statistically significant difference at 2 and 4 h

Molecule: resveratrol (trans-3,5,4′-trihydroxystilbene) [Synthetic-RES]
- dissolution in 80% methanol solution ([4]; 80% methanol): completely dissolved
- dissolution of RES in water, percentage compared to dissolution in methanol ([4]; acidified water pH=2 as well as pH 7.0, RES monitored at 306 nm, FIG. 5): 7%

Source: patent publication US20150275169A1, “PROCESS FOR THE LARGE SCALE PRODUCTION OF FRUIT CELLS” (BIO HARVEST LTD., priority 2012, published 2015)
